Source: ChEMBL document CHEMBL5291721, “A preclinical secondary pharmacology resource illuminates target-adverse drug reaction associations of marketed drugs” (Nat Commun, 2023)

Tests used:
[1] = target: Sodium-dependent dopamine transporter (Homo sapiens, UniProt Q01959)
[2] = target: D(1A) dopamine receptor (Homo sapiens, UniProt P21728); assay type: functional, cell-based
[3] = target: Adenosine receptor A2a (Homo sapiens, UniProt P29274)
[4] = target: Sodium-dependent noradrenaline transporter (Homo sapiens, UniProt P23975)
[5] = target: Vasopressin V1a receptor (Homo sapiens, UniProt P37288)
[6] = target: T1, Alpha-2A adrenergic receptor (Homo sapiens, UniProt P08913); assay type: functional, cell-based
T1 sequence (P08913 whole entry): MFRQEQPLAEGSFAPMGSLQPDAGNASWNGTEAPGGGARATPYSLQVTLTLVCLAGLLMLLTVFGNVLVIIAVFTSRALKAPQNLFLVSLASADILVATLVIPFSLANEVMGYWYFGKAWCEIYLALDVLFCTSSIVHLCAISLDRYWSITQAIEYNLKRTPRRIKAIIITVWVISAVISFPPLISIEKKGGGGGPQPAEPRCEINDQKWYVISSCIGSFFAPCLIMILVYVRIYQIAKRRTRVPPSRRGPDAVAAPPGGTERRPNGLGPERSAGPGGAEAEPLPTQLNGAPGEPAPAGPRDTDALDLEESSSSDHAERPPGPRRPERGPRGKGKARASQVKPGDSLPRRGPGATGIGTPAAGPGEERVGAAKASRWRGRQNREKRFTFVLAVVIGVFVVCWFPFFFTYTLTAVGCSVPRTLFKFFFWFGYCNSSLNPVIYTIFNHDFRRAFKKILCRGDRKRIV

[7] = target: T2, Muscarinic acetylcholine receptor M1 (Homo sapiens, UniProt P11229); assay type: functional
T2 sequence (P11229 whole entry): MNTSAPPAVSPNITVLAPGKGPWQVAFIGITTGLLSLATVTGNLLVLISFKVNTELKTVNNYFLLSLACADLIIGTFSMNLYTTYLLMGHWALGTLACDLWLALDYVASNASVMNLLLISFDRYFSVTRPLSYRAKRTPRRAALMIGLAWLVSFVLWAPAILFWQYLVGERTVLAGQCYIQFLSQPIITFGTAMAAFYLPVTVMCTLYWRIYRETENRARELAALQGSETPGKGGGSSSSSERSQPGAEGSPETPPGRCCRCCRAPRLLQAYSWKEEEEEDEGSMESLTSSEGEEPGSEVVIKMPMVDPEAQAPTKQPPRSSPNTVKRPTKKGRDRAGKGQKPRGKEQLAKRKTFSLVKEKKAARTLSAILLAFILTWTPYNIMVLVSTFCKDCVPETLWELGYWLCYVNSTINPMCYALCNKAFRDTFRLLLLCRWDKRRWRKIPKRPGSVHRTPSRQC

[8] = target: T3, 5-hydroxytryptamine receptor 3A (Homo sapiens, UniProt P46098); assay type: functional
T3 sequence (P46098 whole entry): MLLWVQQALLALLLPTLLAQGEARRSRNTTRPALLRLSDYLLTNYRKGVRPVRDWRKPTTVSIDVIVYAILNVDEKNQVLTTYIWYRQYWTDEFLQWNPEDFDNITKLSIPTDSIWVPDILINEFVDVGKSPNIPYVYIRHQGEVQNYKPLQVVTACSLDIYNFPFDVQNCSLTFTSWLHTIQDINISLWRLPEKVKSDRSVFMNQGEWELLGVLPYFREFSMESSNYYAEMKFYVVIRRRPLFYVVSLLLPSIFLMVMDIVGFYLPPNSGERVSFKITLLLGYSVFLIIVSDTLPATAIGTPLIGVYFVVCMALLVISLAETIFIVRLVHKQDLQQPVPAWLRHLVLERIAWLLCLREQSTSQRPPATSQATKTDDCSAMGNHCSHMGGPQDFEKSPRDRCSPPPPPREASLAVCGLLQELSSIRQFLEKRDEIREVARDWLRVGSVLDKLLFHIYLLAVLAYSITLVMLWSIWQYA

[9] = target: Histamine H1 receptor (Homo sapiens, UniProt P35367)
[10] = target: T4, Glucocorticoid receptor (Homo sapiens, UniProt P04150)
T4 sequence (P04150 whole entry): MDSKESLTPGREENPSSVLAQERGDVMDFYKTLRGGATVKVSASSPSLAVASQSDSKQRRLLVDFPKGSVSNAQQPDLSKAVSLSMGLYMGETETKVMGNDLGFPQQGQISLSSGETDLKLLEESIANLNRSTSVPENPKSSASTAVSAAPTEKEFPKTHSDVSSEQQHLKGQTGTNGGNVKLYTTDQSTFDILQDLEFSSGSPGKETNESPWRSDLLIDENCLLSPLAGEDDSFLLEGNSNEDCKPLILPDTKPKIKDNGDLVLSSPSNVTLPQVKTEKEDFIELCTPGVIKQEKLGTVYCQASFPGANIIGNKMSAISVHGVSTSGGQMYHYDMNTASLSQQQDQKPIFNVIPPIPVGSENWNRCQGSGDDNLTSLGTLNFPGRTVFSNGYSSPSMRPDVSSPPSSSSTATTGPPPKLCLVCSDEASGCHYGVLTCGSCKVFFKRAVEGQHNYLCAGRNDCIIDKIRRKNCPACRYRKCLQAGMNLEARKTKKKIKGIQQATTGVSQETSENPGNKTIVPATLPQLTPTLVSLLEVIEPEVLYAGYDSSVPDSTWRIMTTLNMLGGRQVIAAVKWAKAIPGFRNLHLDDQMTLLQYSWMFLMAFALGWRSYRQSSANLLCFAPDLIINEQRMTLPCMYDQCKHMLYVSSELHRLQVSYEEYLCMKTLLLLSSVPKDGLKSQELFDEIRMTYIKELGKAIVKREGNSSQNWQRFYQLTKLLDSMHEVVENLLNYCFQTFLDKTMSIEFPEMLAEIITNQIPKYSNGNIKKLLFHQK
Also: assay procedure not described here.

Sequence of Vasopressin V1a receptor (P37288 whole entry): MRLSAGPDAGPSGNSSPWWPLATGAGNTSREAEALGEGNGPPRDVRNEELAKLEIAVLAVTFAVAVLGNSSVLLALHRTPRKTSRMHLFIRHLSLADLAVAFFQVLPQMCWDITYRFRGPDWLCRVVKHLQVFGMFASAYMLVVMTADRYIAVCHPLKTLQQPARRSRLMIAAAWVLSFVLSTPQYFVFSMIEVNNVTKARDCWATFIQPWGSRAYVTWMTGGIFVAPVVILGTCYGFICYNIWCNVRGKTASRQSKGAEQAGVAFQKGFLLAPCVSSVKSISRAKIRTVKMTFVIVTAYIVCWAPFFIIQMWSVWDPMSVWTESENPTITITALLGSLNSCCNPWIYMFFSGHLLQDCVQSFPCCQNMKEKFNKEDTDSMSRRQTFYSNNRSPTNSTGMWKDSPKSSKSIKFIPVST
Sequence of Adenosine receptor A2a (P29274 whole entry): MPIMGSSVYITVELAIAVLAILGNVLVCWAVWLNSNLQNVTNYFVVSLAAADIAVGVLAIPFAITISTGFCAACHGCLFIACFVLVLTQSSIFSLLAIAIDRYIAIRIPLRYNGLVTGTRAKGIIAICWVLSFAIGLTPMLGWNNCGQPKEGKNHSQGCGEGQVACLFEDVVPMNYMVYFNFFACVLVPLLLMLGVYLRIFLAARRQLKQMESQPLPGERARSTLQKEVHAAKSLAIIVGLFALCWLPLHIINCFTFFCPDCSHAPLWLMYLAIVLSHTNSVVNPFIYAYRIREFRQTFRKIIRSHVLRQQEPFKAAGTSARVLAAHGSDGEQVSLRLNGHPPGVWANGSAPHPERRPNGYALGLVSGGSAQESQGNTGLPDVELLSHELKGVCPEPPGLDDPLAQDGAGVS
Sequence of Histamine H1 receptor (P35367 whole entry): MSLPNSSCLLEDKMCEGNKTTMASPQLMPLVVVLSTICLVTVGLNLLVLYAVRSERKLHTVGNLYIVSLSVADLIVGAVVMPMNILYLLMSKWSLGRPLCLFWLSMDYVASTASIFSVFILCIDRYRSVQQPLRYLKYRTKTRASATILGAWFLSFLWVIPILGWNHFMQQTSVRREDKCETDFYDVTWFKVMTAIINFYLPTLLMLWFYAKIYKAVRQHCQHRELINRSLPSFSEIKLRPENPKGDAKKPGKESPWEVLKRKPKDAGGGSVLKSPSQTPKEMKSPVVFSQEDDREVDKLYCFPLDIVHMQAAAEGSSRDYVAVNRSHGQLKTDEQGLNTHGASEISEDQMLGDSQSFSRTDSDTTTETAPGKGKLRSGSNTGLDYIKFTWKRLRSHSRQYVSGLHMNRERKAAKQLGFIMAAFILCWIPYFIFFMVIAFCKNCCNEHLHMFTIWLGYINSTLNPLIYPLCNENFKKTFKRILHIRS
Sequence of D(1A) dopamine receptor (P21728 whole entry): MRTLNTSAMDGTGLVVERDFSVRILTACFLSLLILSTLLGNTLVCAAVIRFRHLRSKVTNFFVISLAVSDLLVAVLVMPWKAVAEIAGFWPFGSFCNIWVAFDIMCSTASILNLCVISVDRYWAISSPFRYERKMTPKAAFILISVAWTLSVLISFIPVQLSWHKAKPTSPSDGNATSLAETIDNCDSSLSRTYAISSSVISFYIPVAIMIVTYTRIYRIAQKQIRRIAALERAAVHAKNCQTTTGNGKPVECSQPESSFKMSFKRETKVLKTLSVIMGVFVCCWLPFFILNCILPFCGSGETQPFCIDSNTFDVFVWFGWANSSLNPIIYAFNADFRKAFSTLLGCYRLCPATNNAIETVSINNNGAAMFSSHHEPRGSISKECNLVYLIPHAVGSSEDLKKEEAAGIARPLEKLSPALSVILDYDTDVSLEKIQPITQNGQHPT
Sequence of Sodium-dependent noradrenaline transporter (P23975 whole entry): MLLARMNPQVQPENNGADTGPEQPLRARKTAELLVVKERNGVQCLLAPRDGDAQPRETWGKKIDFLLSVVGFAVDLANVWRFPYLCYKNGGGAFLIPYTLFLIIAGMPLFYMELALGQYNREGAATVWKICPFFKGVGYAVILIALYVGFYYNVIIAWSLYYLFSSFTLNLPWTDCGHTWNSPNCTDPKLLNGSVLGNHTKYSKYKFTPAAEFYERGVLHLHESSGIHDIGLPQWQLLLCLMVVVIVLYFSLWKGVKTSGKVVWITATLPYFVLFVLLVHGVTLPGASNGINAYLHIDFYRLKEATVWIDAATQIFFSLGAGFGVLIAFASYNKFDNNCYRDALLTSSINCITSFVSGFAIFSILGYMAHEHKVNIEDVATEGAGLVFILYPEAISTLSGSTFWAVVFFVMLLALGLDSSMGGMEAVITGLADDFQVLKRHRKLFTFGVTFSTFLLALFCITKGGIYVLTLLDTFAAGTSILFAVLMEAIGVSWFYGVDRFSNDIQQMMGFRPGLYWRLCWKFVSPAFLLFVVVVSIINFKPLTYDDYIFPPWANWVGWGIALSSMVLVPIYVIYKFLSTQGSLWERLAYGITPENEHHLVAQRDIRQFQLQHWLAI
Sequence of Sodium-dependent dopamine transporter (Q01959 whole entry): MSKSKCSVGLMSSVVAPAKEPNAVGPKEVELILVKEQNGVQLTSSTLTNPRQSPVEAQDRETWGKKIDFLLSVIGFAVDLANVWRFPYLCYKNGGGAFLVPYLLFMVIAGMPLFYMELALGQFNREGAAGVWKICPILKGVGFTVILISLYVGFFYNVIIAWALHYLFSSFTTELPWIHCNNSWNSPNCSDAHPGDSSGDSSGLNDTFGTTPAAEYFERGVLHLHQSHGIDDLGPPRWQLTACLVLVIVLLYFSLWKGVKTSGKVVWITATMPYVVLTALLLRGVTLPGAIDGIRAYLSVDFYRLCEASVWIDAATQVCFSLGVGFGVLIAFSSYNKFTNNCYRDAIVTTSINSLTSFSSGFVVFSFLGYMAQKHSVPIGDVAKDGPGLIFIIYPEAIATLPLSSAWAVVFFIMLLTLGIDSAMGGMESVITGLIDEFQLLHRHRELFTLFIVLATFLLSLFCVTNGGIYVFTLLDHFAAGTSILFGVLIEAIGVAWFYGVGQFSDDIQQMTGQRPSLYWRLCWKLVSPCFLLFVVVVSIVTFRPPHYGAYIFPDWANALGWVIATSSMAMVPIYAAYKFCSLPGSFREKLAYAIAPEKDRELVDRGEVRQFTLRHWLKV

SMILES | AC50 [1] | AC50 [2] | AC50 [3] | AC50 [4] | AC50 [5] | AC50 [6] | AC50 [7] | AC50 [8] | AC50 [9] | AC50 [10]
CN1C2CCCC1CC(NC(=O)c1nn(C)c3ccccc13)C2 (configuration not stated) [GRANISETRON] | > 10 µM | > 10 µM | > 30 µM | > 10 µM | > 10 µM | > 10 µM |  |  |  | 
COc1cc(N)cn[n+]1-c1ccccc1 [AMEZINIUM METILSULFATE] | 5.7 µM | > 30 µM | > 30 µM | 3.9 µM | > 30 µM | > 30 µM | > 30 µM | > 30 µM | > 30 µM | 
COC(=O)[C@H]1[C@H]2C[C@@H]3c4[nH]c5ccccc5c4CCN3C[C@H]2C[C@@H](OC(=O)c2cc(OC)c(OC)c(OC)c2)[C@@H]1OC [DESERPIDINE] | > 10 µM | > 10 µM | > 30 µM | > 10 µM | > 30 µM | > 10 µM | > 10 µM | > 30 µM | > 10 µM | 
CCCCCCOC(=O)NC(=N)c1ccc(NCc2nc3cc(C(=O)N(CCC(=O)OCC)c4ccccn4)ccc3n2C)cc1 [DABIGATRAN ETEXILATE] | 17 µM | > 30 µM | > 30 µM | 6.3 µM | > 30 µM | > 30 µM | > 30 µM | > 30 µM | > 30 µM | 
CC(=O)OCC(=O)[C@@]1(O)CC[C@H]2[C@@H]3CCC4=CC(=O)CC[C@]4(C)[C@@]3(F)[C@@H](O)C[C@@]21C [FLUDROCORTISONE ACETATE] | > 30 µM | > 30 µM | > 30 µM | > 30 µM |  | > 30 µM |  | > 30 µM |  | 
CCN(C(C)=O)c1cccc(-c2ccnc3c(C#N)cnn23)c1 [ZALEPLON] | > 30 µM | > 10 µM | > 30 µM | > 30 µM |  | > 10 µM |  | > 30 µM |  | 
CC1NCCOC1c1ccccc1 (configuration not stated) [PHENMETRAZINE] | 25.6 µM | > 10 µM | > 30 µM | 11.4 µM | > 30 µM | > 10 µM | > 10 µM | > 30 µM | > 10 µM | 
COc1ccc2c3c1O[C@H]1C(=O)CC[C@H]4[C@@H](C2)N(C)CC[C@]314 [HYDROCODONE] | > 10 µM | > 10 µM | > 30 µM | > 10 µM | > 10 µM | > 10 µM | > 10 µM | > 30 µM | > 10 µM | 
CCCCOC(=O)C(=O)Nc1cccc(-c2nnn[nH]2)c1 [TAZANOLAST] | > 30 µM | > 30 µM | > 30 µM | > 30 µM | > 30 µM | > 30 µM | > 30 µM | > 30 µM | > 30 µM | 
Nc1ccc(S(=O)(=O)Nc2ncccn2)cc1 [SULFADIAZINE] | > 10 µM | > 10 µM | > 10 µM | > 10 µM |  | > 10 µM |  | > 30 µM |  | 
CCC(NC(C)C)C(O)c1ccc(O)c(O)c1 (configuration not stated) [ISOETHARINE] | 19.6 µM | > 30 µM | > 30 µM | > 30 µM | > 30 µM | > 30 µM | > 30 µM | > 30 µM | > 30 µM | 
COc1nc(C)nc(Cl)c1N=C1NCCN1 [MOXONIDINE] | > 30 µM | > 30 µM | > 30 µM |  |  |  |  | > 30 µM |  | > 30 µM
